Laboratory results from article PMC11574021, “CEP192 localises mitotic Aurora-A activity by priming its interaction with TPX2” (The EMBO Journal, 2024).

Tests used:
Assay type in all cases: cell-based, Homo sapiens
[1] = tested on: TCTP-pS46 in RPE1 p53-/- cells; assay: Western blot densitometry, TCTP-pS46, RPE1 p53-/-; settings: mitotic RPE1 p53-/- lysates, inhibitor 30 min
Procedure: (§1) For measuring monopolar spindle diameter and counting centriolar foci by immunofluorescence, cells were treated with 10 µM STLC for 1 h and 4 h prior to fixation, respectively.
(§2) Drugs were resuspended in DMSO to the stock concentrations indicated in square brackets.
(§3) Cells were lysed on ice for 30 min in lysis buffer (50 mM tris pH 8.0, 300 mM NaCl, 0.2%(v/v) NP-40, 10%(v/v) glycerol, protease inhibitor cocktail C, phosphatase inhibitor cocktail 3 (Sigma, 1:200 dilution), 100 nM okadaic acid (Enzo, ALX-350-003-C100)). Lysates were then centrifuged at 14,000 × g, 15 min, 4 °C, the supernatants were transferred to a fresh tube, and the pellet was discarded. Protein concentrations were measured by Bradford assay using Protein Assay Dye Reagent Concentrate (Bio-Rad Laboratories, 5000006). NuPage LDS sample buffer, supplemented with NuPAGE sample reducing agent (Invitrogen) were added prior to boiling for 10 min at 90 °C. […] Nitrocellulose was then blocked in 5% milk (wt/v) in TBS, 0.1% Tween (v/v) (TBST) for 1 h. Primary and secondary antibodies were diluted in 5% milk, TBST and incubated overnight at 4 °C or for 1 h at room temperature, respectively. […]
(§4) Densitometric quantification of western blots was also performed in ImageJ. Intensity was measured in a rectangular region of interest (ROI) around each band. […] An adjacent region was also measured to account for background intensity.

[2] = tested on: PLK1-pT210 in RPE1 p53-/- cells; assay: Western blot densitometry, PLK1-pT210, RPE1 p53-/-; settings: mitotic RPE1 p53-/- lysates, inhibitor 30 min
Procedure: as §1, §2, §3, §4

[3] = tested on: NuMA in RPE1 p53-/- cells; assay: Immunofluorescence, NuMA spindle pole signal intensity, RPE1 p53-/-; settings: Aurora-A inhibitor 30 min (500 nM), compared with RΔ11
Procedure: (§5) As noted in the figures, the following drugs were incubated with cells for 30 min at 37 °C: Aurora-B-i ZM447439 2 µM [10 mM], PLK1-I BI2536 1 µM [10 mM] and Aurora-A-i MLN8237 [5 mM] was used at 250 and 500 nM in U251 and RPE1 cells, respectively. Drugs were resuspended in DMSO to the stock concentrations indicated in square brackets. BI2536 (HY-50698), MLN8237 (HY-10971) and ZM447439 (HY-10128) were all purchased from MedChemExpress. For western blotting, a 20-min pre-treatment with proteasome inhibitor (20 µM MG-132, MerckMillipore, 47490 [20 mM]) was required prior to the addition of DMSO control or kinase inhibitors. This prevented mitotic exit as a consequence of checkpoint override following Aurora-A and Aurora-B inhibitor addition.
(§6) For siRNA depletion, 1 × 10^5 cells were seeded in six-well plates and transfected as described above for 48 h prior to fixation. For all other experiments, 2.5 × 10^5 cells were seeded in six-well plates and grown for 24 h before fixation. All cells were grown on 12 mm diameter glass coverslips (VWR, 631–1577). […]
(§7) For CEP192, LATS2-pS83, PCNT, PLK1 and γ-tubulin intensity, a 20-pixel diameter circle was centred over each centrosome and the intensity measured. […]

Eg5 in RPE1 p53-/- cells = assay: Immunofluorescence, Eg5 spindle signal intensity, RPE1 p53-/-; settings: Aurora-A inhibitor 30 min (500 nM)
Procedure: as §5, §6, §7

γ-tubulin in RPE1 cells = assay: Immunofluorescence, γ-tubulin centrosomal signal intensity, RPE1; settings: RPE1 p53-/-, Aurora-A inhibitor 30 min
Procedure: as §5, §6, §7

COc1cc(Nc2ncc3c(n2)-c2ccc(Cl)cc2C(c2c(F)cccc2OC)=NC3)ccc1C(=O)O [Alisertib]
phosphorylation of TCTP (pS46) [1]: decreased
T-loop phosphorylation of PLK1 (pT210) [2]: decreased
NuMA levels at spindle poles [3]: equally high in R∆11 and Aurora-A inhibitor-treated cells
spindle levels of Eg5 (Eg5 in RPE1 p53-/- cells): decrease in spindle levels of Eg5
centrosomal γ-tubulin (γ-tubulin in RPE1 cells): significant drop in centrosomal γ-tubulin
